Our source for the DC50 values is patent US20240190880A1 (THE REGENTS OF THE UNIVERSITY OF MICHIGAN, priority 2021, published 2024).

The first assay has as its target T1, ER (Homo sapiens, UniProt P03372).
T1 construct: host or cells: T47D and MCF7 human breast cancer cells
T1 sequence (P03372 1-595): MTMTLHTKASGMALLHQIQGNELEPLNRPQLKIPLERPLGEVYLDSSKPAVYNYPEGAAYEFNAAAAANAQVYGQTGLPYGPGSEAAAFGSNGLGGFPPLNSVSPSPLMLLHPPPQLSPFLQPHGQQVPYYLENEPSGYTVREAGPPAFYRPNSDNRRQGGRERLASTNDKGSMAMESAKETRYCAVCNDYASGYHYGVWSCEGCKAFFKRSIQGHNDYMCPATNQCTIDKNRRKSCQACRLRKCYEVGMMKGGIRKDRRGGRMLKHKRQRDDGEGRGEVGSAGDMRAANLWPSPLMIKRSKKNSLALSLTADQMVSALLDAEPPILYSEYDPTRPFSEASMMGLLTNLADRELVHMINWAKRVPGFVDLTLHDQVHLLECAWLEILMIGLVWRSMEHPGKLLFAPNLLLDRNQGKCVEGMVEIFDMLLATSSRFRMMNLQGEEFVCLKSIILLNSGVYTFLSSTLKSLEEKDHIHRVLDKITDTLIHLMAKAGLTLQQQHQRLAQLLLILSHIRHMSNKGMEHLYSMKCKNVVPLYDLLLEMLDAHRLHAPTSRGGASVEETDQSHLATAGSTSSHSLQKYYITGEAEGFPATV
As to the kind of experiment: ER degradation activity, in-cell western blot analysis in T47D cells. Format: cell-based. To be noted: 16 hours, Table A does not say which cell line (T47D or MCF7), read-out: Potency (DC50). The method, boiled down:
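Human T47D cells (DMEM, 10% FBS) are dosed for 16 h with 0.5% DMSO final and probed with 680- and 800-dye secondary antibodies. Relative ER is calculated against vehicle and untreated wells.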
What is called DC50 is the midpoint of the concentration-degradation curve. On to `O=C1CCC(N2C(=O)c3cc4c(cc3C2=O)CN(CC(=O)N2CCC3(CC2)CCN(c2ccc([C@@H]5c6ccc(O)cc6CC[C@@H]5c5ccccc5)cc2)C3)C4)C(=O)N1` (mixture of isomers) [E 139, Rac-2-(2,6-dioxopiperidin-3-yl)-6-(2-(2-(4-((1R,2S)-6-hydroxy-2-phenyl-1,2,3,4-tetrahydronaphthalen-1-yl)phenyl)-2,8-diazaspiro[4.5]decan-8-yl)-2-oxoethyl)-6,7-dihydropyrrolo[3,4-f]isoindole-1,3(2H,5H)-dione], for which the DC50 is 10 to 100 nM.

Take `C[C@@H]1Cc2cc(O)ccc2[C@@H](c2ccc(N3CCC4(CCN(C(=O)CN5Cc6cc7c(cc6C5)C(=O)N(C5CCC(=O)NC5=O)C7=O)CC4)CC3)cc2)N1CC(F)F` (stereo partly drawn) [E 301, 6-(2-(9-(4-((1R,3R)-2-(2,2-difluoroethyl)-6-hydroxy-3-methyl-1,2,3,4-tetrahydroisoquinolin-1-yl)phenyl)-3,9-diazaspiro[5.5]undecan-3-yl)-2-oxoethyl)-2-(2,6-dioxopiperidin-3-yl)-6,7-dihydropyrrolo[3,4-f]isoindole-1,3(2H,5H)-dione]: the DC50 lay in the range of 10 to 100 nM.

Regarding `C[C@@H]1Cc2c([nH]c3ccccc23)[C@@H](c2c(F)cc(N3CC4(CCCN(CC(=O)N5Cc6cc7c(cc6C5)C(=O)N(C5CCC(=O)NC5=O)C7=O)C4)C3)cc2F)N1CC(F)F` (stereo partly drawn) [E 105, 6-(2-(2-(4-((1R,3R)-2-(2,2-difluoroethyl)-3-methyl-2,3,4,9-tetrahydro-1H-pyrido[3,4-b]indol-1-yl)-3,5-difluorophenyl)-2,6-diazaspiro[3.5]nonan-6-yl)acetyl)-2-(2,6-dioxopiperidin-3-yl)-6,7-dihydropyrrolo[3,4-f]isoindole-1,3(2H,5H)-dione], the DC50 is more than 100 nM.

On to `O=C1CCC(N2Cc3cc4c(cc3C2=O)CN(C(=O)C2CCN(CC3CN(c5ccc([C@@H]6c7ccc(O)cc7CC[C@@H]6c6ccccc6)cc5)C3)CC2)C4)C(=O)N1` (stereo partly drawn) [E 296, 3-(6-(1-((1-(4-((1R,2S)-6-hydroxy-2-phenyl-1,2,3,4-tetrahydronaphthalen-1-yl)phenyl)azetidin-3-yl)methyl)piperidine-4-carbonyl)-1-oxo-3,5,6,7-tetrahydropyrrolo[3,4-f]isoindol-2(1H)-yl)piperidine-2,6-dione], for which the DC50 was more than 100 nM.

With `C[C@@H]1Cc2c([nH]c3ccccc23)[C@@H](c2ccc(N3CCC4(CCN(C(=O)CN5Cc6cc7c(cc6C5)C(=O)N(C5CCC(=O)NC5=O)C7=O)CC4)CC3)nc2)N1CC(F)F` (stereo partly drawn) [E 281, 6-(2-(9-(5-((1R,3R)-2-(2,2-difluoroethyl)-3-methyl-2,3,4,9-tetrahydro-1H-pyrido[3,4-b]indol-1-yl)pyridin-2-yl)-3,9-diazaspiro[5.5]undecan-3-yl)-2-oxoethyl)-2-(2,6-dioxopiperidin-3-yl)-6,7-dihydropyrrolo[3,4-f]isoindole-1,3(2H,5H)-dione], the DC50 lay within 10 to 100 nM.

`O=C1CCC(N2C(=O)c3cc4c(cc3C2=O)CN(CC2(F)CCN(C(=O)C3(F)CN(c5ccc([C@@H]6c7ccc(O)cc7CC[C@@H]6c6ccccc6)cc5)C3)CC2)C4)C(=O)N1` (stereo partly drawn) [E 202, 2-(2,6-dioxopiperidin-3-yl)-6-((4-fluoro-1-(3-fluoro-1-(4-((1R,2S)-6-hydroxy-2-phenyl-1,2,3,4-tetrahydronaphthalen-1-yl)phenyl)azetidine-3-carbonyl)piperidin-4-yl)methyl)-6,7-dihydropyrrolo[3,4-f]isoindole-1,3(2H,5H)-dione]: the DC50 is more than 100 nM.

Regarding `C[C@@H]1Cc2c([nH]c3ccccc23)[C@@H](c2c(F)cc(CN3CCC4(CC3)CC(CN3Cc5cc6c(cc5C3)C(=O)N(C3CCC(=O)NC3=O)C6=O)C4)cc2F)N1CC(F)F` (stereo partly drawn) [E 370, 6-((7-(4-((1R,3R)-2-(2,2-difluoroethyl)-3-methyl-2,3,4,9-tetrahydro-1H-pyrido[3,4-b]indol-1-yl)-3,5-difluorobenzyl)-7-azaspiro[3.5]nonan-2-yl)methyl)-2-(2,6-dioxopiperidin-3-yl)-6,7-dihydropyrrolo[3,4-f]isoindole-1,3(2H,5H)-dione], the DC50 is more than 100 nM.

Turning to `O=C1CCC(N2C(=O)c3cc4c(cc3C2=O)CN(C(=O)[C@H]2CC[C@H](N3CC(Nc5ccc([C@H]6c7ccc(O)cc7CC[C@H]6c6ccccc6)cc5)C3)CC2)C4)C(=O)N1` (stereo partly drawn) [E 390, 2-(2,6-dioxopiperidin-3-yl)-6-((1S,4r)-4-(3-((4-((1S,2R)-6-hydroxy-2-phenyl-1,2,3,4-tetrahydronaphthalen-1-yl)phenyl)amino)azetidin-1-yl)cyclohexane-1-carbonyl)-6,7-dihydropyrrolo[3,4-f]isoindole-1,3(2H,5H)-dione], the DC50 was in the range of 10 to 100 nM.

As for `O=C1CCC(N2Cc3cc4c(cc3C2=O)CN(C(=O)C2CCC(NC3CN(c5ccc([C@@H]6c7ccc(O)cc7CC[C@@H]6c6ccccc6)cc5)C3)CC2)C4)C(=O)N1` (stereo partly drawn) [E 359, 3-(6-(4-((1-(4-((1R,2S)-6-hydroxy-2-phenyl-1,2,3,4-tetrahydronaphthalen-1-yl)phenyl)azetidin-3-yl)amino)cyclohexane-1-carbonyl)-1-oxo-3,5,6,7-tetrahydropyrrolo[3,4-f]isoindol-2(1H)-yl)piperidine-2,6-dione], the DC50 was in the range of 10 to 100 nM.

In the case of `O=C1CCC(N2C(=O)c3cc4c(cc3C2=O)CN(C[C@H]2CC[C@@H](N3CC(Nc5ccc([C@@H]6c7ccc(O)cc7CC[C@@H]6c6ccccc6)cc5)C3)CC2)C4)C(=O)N1` (stereo partly drawn) [E 375, 2-(2,6-dioxopiperidin-3-yl)-6-(((1S,4s)-4-(3-((4-((1R,2S)-6-hydroxy-2-phenyl-1,2,3,4-tetrahydronaphthalen-1-yl)phenyl)amino)azetidin-1-yl)cyclohexyl)methyl)-6,7-dihydropyrrolo[3,4-f]isoindole-1,3(2H,5H)-dione], the 50% degradation concentration (DC50) was more than 100 nM.

Take `C[C@@H]1Cc2c([nH]c3ccccc23)[C@@H](c2c(F)cc(N3CC4(CCN4CC(=O)N4Cc5cc6c(cc5C4)C(=O)N(C4CCC(=O)NC4=O)C6=O)C3)cc2F)N1CC(F)F` (stereo partly drawn) [E 60, 6-(2-(6-(4-((1R,3R)-2-(2,2-difluoroethyl)-3-methyl-2,3,4,9-tetrahydro-1H-pyrido[3,4-b]indol-1-yl)-3,5-difluorophenyl)-1,6-diazaspiro[3.3]heptan-1-yl)acetyl)-2-(2,6-dioxopiperidin-3-yl)-6,7-dihydropyrrolo[3,4-f]isoindole-1,3(2H,5H)-dione]: the DC50 was more than 100 nM.

Consider `O=C1CCC(N2C(=O)c3cc4c(cc3C2=O)CN(C2CCN(CC3CN(c5ccc([C@@H]6c7ccc(O)cc7CC[C@@H]6c6ccccc6)cc5)C3)CC2)C4)C(=O)N1` (stereo partly drawn) [E243, 2-(2,6-dioxopiperidin-3-yl)-6-(1-((1-(4-((1R,2S)-6-hydroxy-2-phenyl-1,2,3,4-tetrahydronaphthalen-1-yl)phenyl)azetidin-3-yl)methyl)piperidin-4-yl)-6,7-dihydropyrrolo[3,4-f]isoindole-1,3(2H,5H)-dione], for which the DC50 was less than 10 nM.

Regarding `C[C@@H]1Cc2c([nH]c3ccccc23)[C@@H](c2c(F)cc(N3CC4(CCN(CC(=O)N5Cc6cc7c(cc6C5)C(=O)N(C5CCC(=O)NC5=O)C7)C4)C3)cc2F)N1CC(F)F` (stereo partly drawn) [E 73, 3-(6-(2-(2-(4-((1R,3R)-2-(2,2-difluoroethyl)-3-methyl-2,3,4,9-tetrahydro-1H-pyrido[3,4-b]indol-1-yl)-3,5-difluorophenyl)-2,6-diazaspiro[3.4]octan-6-yl)acetyl)-1-oxo-3,5,6,7-tetrahydropyrrolo[3,4-f]isoindol-2(1H)-yl)piperidine-2,6-dione], the DC50 is less than 10 nM.

Staying with this assay, now noted: compounds 16 hours, Table A does not say whether T47D or MCF7, read-out: Potency (DC50).
Consider `COc1cc([C@H]2CC[C@@H](C(=O)N3CCC(N4Cc5cc6c(cc5C4)C(=O)N(C4CCC(=O)NC4=O)C6=O)CC3)CC2)ccc1[C@@H]1c2[nH]c3ccccc3c2C[C@@H](C)N1CC(F)F` (stereo partly drawn) [E 404, 6-(1-((1S,4s)-4-(4-((1R,3R)-2-(2,2-difluoroethyl)-3-methyl-2,3,4,9-tetrahydro-1H-pyrido[3,4-b]indol-1-yl)-3-methoxyphenyl)cyclohexane-1-carbonyl)piperidin-4-yl)-2-(2,6-dioxopiperidin-3-yl)-6,7-dihydropyrrolo[3,4-f]isoindole-1,3(2H,5H)-dione], for which the DC50 is more than 100 nM.

With `O=C1CCC(N2C(=O)c3cc4c(cc3C2=O)CN(CC(=O)N2CCC3(CC2)CCN(c2ccc([C@H]5c6ccc(O)cc6CC[C@H]5c5ccccc5)cc2)CC3)C4)C(=O)N1` (stereo partly drawn) [E 437, 2-(2,6-dioxopiperidin-3-yl)-6-(2-(9-(4-((1S,2R)-6-hydroxy-2-phenyl-1,2,3,4-tetrahydronaphthalen-1-yl)phenyl)-3,9-diazaspiro[5.5]undecan-3-yl)-2-oxoethyl)-6,7-dihydropyrrolo[3,4-f]isoindole-1,3(2H,5H)-dione], the DC50 was more than 100 nM.

Take `O=C1CCC(N2C(=O)c3cc4c(cc3C2=O)CN(CC(=O)N2CC3(CCN(c5ccc([C@H]6c7ccc(O)cc7CC[C@H]6c6ccccc6)cc5)CC3)C2)C4)C(=O)N1` (stereo partly drawn) [E 438, 2-(2,6-dioxopiperidin-3-yl)-6-(2-(7-(4-((1S,2R)-6-hydroxy-2-phenyl-1,2,3,4-tetrahydronaphthalen-1-yl)phenyl)-2,7-diazaspiro[3.5]nonan-2-yl)-2-oxoethyl)-6,7-dihydropyrrolo[3,4-f]isoindole-1,3(2H,5H)-dione]: the DC50 was more than 100 nM.
